Measurements: patent publication US9402839B2, “Selective targeting agents for mitochondria” (University of Pittsburgh—Of the Commonwealth System of …, priority 2006, dated 2016)

What was measured:
[1] = test system: rat ileal mucosal permeability; experiment: Intestinal mucosal permeability assay (FD4 clearance, everted gut sacs) after pressure-controlled hemorrhagic shock; type: in vivo; conditions: intraluminal
Experimental: Intestinal mucosal permeability assay. Animals were allowed access to water but not food for 24 h prior to the experiment in order to decrease the volume of intestinal contents. The rats were instrumented as described above.
A midline laparotomy was performed and the small intestine was exteriorized from the duodenojejunal junction to the ileocecal valve. A small incision was made on the antimesenteric aspect of the proximal small intestine and saline solution (1.5 ml) was injected. The bowel was ligated proximally and distally to the incision with 4-0 silk (LOOK, Reading, Pa.).
The small intestine was compressed gently in aboral direction along its length to displace intestinal contents into the colon. Starting 5 cm from the ileocecal valve, the ileum was partitioned into six contiguous water-tight segments. Each segment was 3 cm long and was bounded proximally and distally by constricting circumferential 4-0 silk sutures. Care was taken to ensure that the vascular supply to intestine was not compromised, and each segment was well-perfused.
Two randomly selected segments in each rat were injected with 0.3 ml of vehicle and served as “no treatment” controls. In order to fill the segments, a small incision was made and the solution was injected using a Teflon catheter (ABBOCATH 16Ga, ABBOTT LABORATORIES).
The remaining four other segments were injected with solutions containing either 4-hydroxy-2,2,6,6-tetramethylpiperidine-N-oxyl (TEMPOL) or one of the Gramicidin S-based compounds. Four different final concentrations of TEMPOL in normal saline were evaluated: 0.1, 1, 5 and 20 mM. The hemigramicidin-based compounds were dissolved in a mixture of dimethylsulfoxide (DMSO) and normal saline (1:99 v/v) and injected at final concentrations of 0.1, 1, 10 or 100 μM.
After the segments were loaded with saline or the test compounds, the bowel was replaced inside the peritoneal cavity and the abdominal incision was temporarily closed using Backhaus forceps.
After a 5 min stabilization period, hemorrhagic shock was induced by withdrawing blood via the jugular catheter. MAP was maintained at 30±3 mm Hg for 2 hours. The shed blood was re-infused as needed to maintain MAP within the desired range.
After 2 h of shock, the animals were euthanized with an intracardiac KCl bolus injection. The ileum was rapidly excised from the ileocecal valve to the most proximal gut segment. The tips of each segment were discarded. In order to assay caspases 3 and 7 activity and phospholipids peroxidation, mucosa samples were collected from gut segments immediately after hemorrhage and stored at −80° C. For permeability measurements, each segment was converted into an everted gut sac, as previously described by Wattanasirichaigoon et al., see Wattanasirichaigoon, S. et al., Effect of mesenteric ischemia and reperfusion or hemorrhagic shock on intestinal mucosal permeability and ATP content in rats, SHOCK, 12:127-133 (1999).
Briefly, as per the Wattanasirichaigoon protocol referenced above, the sacs were prepared in ice-cold modified Krebs-Henseleit bicarbonate buffer (“KHBB”), pH 7.4. One end of the gut segment was ligated with a 4-0 silk suture; the segment was then everted onto a thin plastic rod. The resulting gut sac was mounted on a Teflon catheter (Abbocath 16GA, Abbot Laboratories) connected to a 3 ml plastic syringe containing 1.5 ml of KHBB. The sac was suspended in a beaker containing KHBB plus fluorescein-isothiocyanate labeled dextran (average molecular mass 4 kDa; FD4; 0.1 mg/ml). This solution was maintained at 37° C., and oxygenated by bubbling with a gas mixture (O2 95%/CO2 5%). After 30 min, the fluid within the gut sac was collected. The samples were cleared by centrifugation at 2000 g for 5 min.
Fluorescence of FD4 in the solution inside the beaker and within each gut sac was measured using a fluorescence spectrophotometer (LS-50, PERKIN-ELMER, Palo Alto, Calif.) at an excitation wavelength of 492 nm and an emission wavelength of 515 nm. […]

[2] = test system: Caco-2BBe human enterocyte-like monolayers; experiment: Permeability of Caco-2 monolayers exposed to menadione (FD4 clearance); type: cell-based; conditions: 10 μM apical, menadione 50 μM, 6 hours
Experimental: Cells. Caco-2BBe human enterocyte-like epithelial cells were obtained from the AMERICAN TYPE CULTURE COLLECTION (Manassas, Va.). Cells were routinely maintained at 37° C. in under a humidified atmosphere containing 8% CO2 in air. The culture medium was DMEM supplemented with 10% FBS, non-essential amino acids supplement (SIGMA-ALDRICH catalogue #M7145), sodium pyruvate (2 mM), streptomycin (0.1 mg/ml), penicillin G (100 U/ml) and human transferrin (0.01 mg/ml). The culture medium was changed 3 times per week.
Measurement of permeability of Caco-2 monolayers. Caco-2BBe cells were plated at a density of 5×10^4 cells/well on permeable filters (0.4 μm pore size) in 12-well bicameral chambers (TRANSWELL, COSTAR, Corning, N.Y.).
Briefly, the medium on the basolateral side was replaced with control medium or medium containing menadione (50 μM final). Medium containing FD4 (25 mg/ml) was applied to the apical chamber. In some cases, one of the gramicidin S-based compounds, XJB-5-131, also was added to the apical side at final concentrations of 0.1, 1, 10 or 100 μM. […] Permeability of the monolayers was expressed as a clearance (pL·h^−1·cm^−2), see Han, X. et al., Proinflammatory cytokines cause NO dependent and independent changes in expression and localization of tight junction proteins in intestinal epithelial cells, SHOCK 19:229-237 (2003). […]

CC(C)C[C@@H](/C=C/[C@H](Cc1ccccc1)C(=O)N1CCC[C@H]1C(=O)N[C@H](C(=O)N[C@@H](CCCNC(=O)OCc1ccccc1)C(=O)NC1CC(C)(C)N([O])C(C)(C)C1)C(C)C)NC(=O)OC(C)(C)C [XJB-5-131]
lowest effective concentration against ileal mucosal hyperpermeability [1]: 1 µM
protection against hemorrhagic shock-induced ileal mucosal hyperpermeability ([1]; 0.1-100 μM, 2 h shock): significantly ameliorated
potency relative to TEMPOL ([1]; gut mucosal protection): ~1000 fold
hemorrhagic shock-induced mucosal hyperpermeability relative to control value ([1]; control segments loaded with vehicle): approximately 60%
protection against menadione-induced hyperpermeability [2]: significant protection
